Reference: PubChem BioAssay AID1195 (EPA DSSTox, 2008)

System: human maximum recommended daily dose, FDA database
Assay: DSSTox (FDAMDD) FDA Maximum (Recommended) Daily Dose Database
Settings: active compounds read low
Description: The Food and Drug Administration (FDA) Center for Drug Evaluation and Research, Office of Pharmaceutical Science, Informatics and Computational Safety Analysis Staff's Maximum Recommended Daily Dose (FDAMDD) database contains values for over 1200 pharmaceuticals listed in Martindale: The Extra Pharmacopoeia (1973, 1983, and 1993) and The Physicians' Desk Reference (1995 and 1999). Some classes of chemicals were excluded from the FDAMDD database due to their unsuitability for most QSAR modeling programs. These were inorganic chemicals, high molecular weight polymers (>5000 Daltons), fibers, salts, mixtures of organic chemicals, and small molecules (<100 Daltons). FDAMDD is the non-proprietary portion of the database that was used in the QSAR analysis reported in the Main Citation. DSSTox FDAMDD has fewer substance records than the original MRDD Source database due to consolidation of partial structures (i.e., complexed entities) into a single record and elimination of duplicate entries. DSSTox FDAMDD also differs from the MRDD Source database in presenting complete structural information pertaining to the actual salt or complexed form corresponding to the listed ChemicalName and CASRN. According to the Source authors, there are a number of cases where multiple related forms or derivatives of a drug were listed as separate records but were assumed to fall under the same clinical toxicity assessment and, therefore, assigned the same Dose_MRDD_mg activity value. For the DSSTox FDAMDD, we have labeled these derivatives in the ChemClass_MRDD_grouping field and provide their counts in the ChemicalReplicateCount field to highlight their special nature.
Maximum recommended daily dose (or maximum recommended therapeutic dose) values were determined from pharmaceutical clinical trials that employed an oral route of exposure and daily treatments, usually for 3-12 months. Drugs were given as single or divided dose treatment regimens to achieve desired pharmacological effects. Roughly 5% of the pharmaceuticals in the FDAMDD data file were antineoplastics and anesthetics and were administered intravenously and/or intramuscularly. When separate MRDDs were reported for different routes of exposure, only the oral MRDD was included in the data file and only MRDD values reported for the average adult patient were used. Pharmaceuticals that are administered orally are usually tested over a limited range of doses and have MRDDs reported as mg/day. The mg/day unit was converted to mg/kg-body weight (bw)/day based upon an average adult weighing 60 kg. In contrast, the dose unit for most antineoplastic drug MRDDs is reported as mg/m2 which was converted to mg/kg-bw/day using the formula mg/kg-bw/day = mg/m2/37 for an average adult. Additionally, a few drugs had MRDDs reported in parts per million (ppm) which were converted to mg/kg-bw/day on the basis that 1000 ppm equals 25 mg/kg-bw/day for an average 60 kg adult. Activity Score is mapping of LOG10(1/Dose_MRDD_mmol) spanning activity range [MIN, MAX] onto Integer 1-100 Activity range, where 100 is highest potency and 1 is lowest potency: ActivityScore = 100 * INTEGER[(LOGINV_MRDD_mmol - MIN)/(MAX […] MIN)]. Activity Outcome is "active" for all substances, since Dose_MRDD_mmol is reported for all substances.

[1] = TherapeuticCategory: antibacterial
[2] = TherapeuticCategory: antineoplastic
[3] = TherapeuticCategory: sedative, hypnotic
[4] = TherapeuticCategory: bronchodilator
[5] = TherapeuticCategory: anticholinergic
[6] = TherapeuticCategory: antiamebic
[7] = TherapeuticCategory: antihistaminic
[8] = TherapeuticCategory: diagnostic aid
[9] = TherapeuticCategory: antihypertensive

NC(=O)c1cc[n+](CC2=C(C(=O)[O-])N3C(=O)[C@@H](NC(=O)C(c4ccccc4)S(=O)(=O)O)[C@H]3SC2)cc1 (some centres undefined)
maximum recommended daily dose (mmol/kg-bw/day) [1]: 0.188

Cc1cn([C@H]2C[C@H](N=[N+]=[N-])[C@@H](CO)O2)c(=O)[nH]c1=O
maximum recommended daily dose (mmol/kg-bw/day) (TherapeuticCategory: antiviral): 0.0374

CC[C@@H](CO)NC(=O)[C@@H]1C=C2c3cccc4[nH]cc(c34)C[C@H]2N(C)C1
maximum recommended daily dose (mmol/kg-bw/day) (TherapeuticCategory: oxytocic): 3.92e-05

COc1cccc2c1C(=O)c1c(O)c3c(c(O)c1C2=O)C[C@@](O)(C(=O)CO)C[C@@H]3O[C@H]1C[C@H](N)[C@H](O)[C@H](C)O1
maximum recommended daily dose (mmol/kg-bw/day) [2]: 0.00447

CCC(C)C1(CC)C(=O)NC(=O)NC1=O (centres undefined)
maximum recommended daily dose (mmol/kg-bw/day) [3]: 0.00942

CC(C)N=C(N)/N=C(\N)Nc1ccc(Cl)cc1
maximum recommended daily dose (mmol/kg-bw/day) (TherapeuticCategory: antimalarial): 0.0131

CC(=O)N=c1sc(S(N)(=O)=O)nn1C
maximum recommended daily dose (mmol/kg-bw/day) (TherapeuticCategory: diuretic): 0.0212

O=c1[nH]cc(F)c(=O)[nH]1
maximum recommended daily dose (mmol/kg-bw/day) [2]: 0.0923

O=C(O)c1cccnc1
maximum recommended daily dose (mmol/kg-bw/day) (TherapeuticCategory: vitamin): 0.102

N[C@@H](CC(=O)O)C(=O)O
maximum recommended daily dose (mmol/kg-bw/day) (TherapeuticCategory: roborant): 0.751

CN(C)CCn1nnnc1SCC1=C(C(=O)O)N2C(=O)[C@@H](NC(=O)Cc3csc(N)n3)[C@H]2SC1
maximum recommended daily dose (mmol/kg-bw/day) [1]: 0.19

C[C@H]1C[C@@H]2[C@H]([C@@H](O)C[C@@]3(C)[C@H]2CC[C@]3(O)C(=O)COC(=O)CCC(=O)O)[C@@]2(C)C=CC(=O)C=C12
maximum recommended daily dose (mmol/kg-bw/day) (TherapeuticCategory: glucocorticoid): 0.0084

COc1cc(C[C@@H]2NCCc3cc(O)c(O)cc32)cc(OC)c1OC
maximum recommended daily dose (mmol/kg-bw/day) [4]: 0.000869

OC(CCN1CCCC1)(c1ccccc1)C1CCCCC1 (centres undefined)
maximum recommended daily dose (mmol/kg-bw/day) [5]: 0.00116

NC[C@@H]1O[C@H](O[C@H]2[C@@H](O)[C@H](O[C@@H]3[C@@H](O)[C@H](N)C[C@H](N)[C@H]3O[C@H]3O[C@H](CO)[C@@H](O)C[C@H]3N)O[C@@H]2CO)[C@H](N)[C@@H](O)[C@@H]1O[C@H]1O[C@H](CO)[C@@H](O)[C@H](O)[C@@H]1O
maximum recommended daily dose (mmol/kg-bw/day) [1]: 0.0219

Oc1c(I)cc(I)c2cccnc12
maximum recommended daily dose (mmol/kg-bw/day) [6]: 0.0756

NS(=O)(=O)c1cc2c(cc1Cl)NC(C(Cl)Cl)NS2(=O)=O (centres undefined)
maximum recommended daily dose (mmol/kg-bw/day) (TherapeuticCategory: diuretic, antihypertensive): 0.000175

NC(CO)C(=O)NNCc1ccc(O)c(O)c1O (centres undefined)
maximum recommended daily dose (mmol/kg-bw/day) (TherapeuticCategory: antiparkinsonian): 0.0129

Cc1ccc(/C(=C\CN2CCCC2)c2cccc(/C=C/C(=O)O)n2)cc1
maximum recommended daily dose (mmol/kg-bw/day) [7]: 0.00153

CCOC(=O)C(C)(C)Oc1ccc(Cl)cc1
maximum recommended daily dose (mmol/kg-bw/day) (TherapeuticCategory: antihyperlipoproteinemic): 0.137

CC(=O)CCCCn1c(=O)c2c(ncn2C)n(C)c1=O
maximum recommended daily dose (mmol/kg-bw/day) (TherapeuticCategory: vasodilator): 0.0719

CC(=O)Nc1c(I)c(C(=O)O)c(I)c(N(C)C(C)=O)c1I
maximum recommended daily dose (mmol/kg-bw/day) [8]: 0.159

COc1ccccc1OCC(O)CO (centres undefined)
maximum recommended daily dose (mmol/kg-bw/day) (TherapeuticCategory: expectorant): 0.101

CC(N)Cc1ccc(O)cc1 (centres undefined)
maximum recommended daily dose (mmol/kg-bw/day) (TherapeuticCategory: adrenergic, mydriatic): 0.0265

CN(C)CC/C=C1\c2ccccc2Sc2ccc(Cl)cc21
maximum recommended daily dose (mmol/kg-bw/day) (TherapeuticCategory: antipsychotic): 0.0105

CC[C@H]1OC(=O)[C@H](C)[C@@H](O[C@H]2C[C@@](C)(OC)[C@@H](O)[C@H](C)O2)[C@H](C)[C@@H](O[C@@H]2O[C@H](C)C[C@H](N(C)C)[C@H]2OC(C)=O)[C@](C)(O)C[C@@H](C)C(=O)[C@H](C)[C@@H](O)[C@]1(C)O
maximum recommended daily dose (mmol/kg-bw/day) [1]: 0.0629

Nc1ccn([C@H]2CS[C@@H](CO)O2)c(=O)n1
maximum recommended daily dose (mmol/kg-bw/day) (TherapeuticCategory: antiviral): 0.0218

COc1cc2nc(N3CCN(C(=O)C4CCCO4)CC3)nc(N)c2cc1OC (centres undefined)
maximum recommended daily dose (mmol/kg-bw/day) [9]: 0.00086

NCCCCCC(=O)O
maximum recommended daily dose (mmol/kg-bw/day) (TherapeuticCategory: hemostatic): 1.52

CCCCCCC(=O)OCCN1CCN(CCCN2c3ccccc3Sc3ccc(C(F)(F)F)cc32)CC1
maximum recommended daily dose (mmol/kg-bw/day) (TherapeuticCategory: antispsychotic): 0.000606

O=[N+]([O-])O[C@@H]1CO[C@H]2[C@@H]1OC[C@@H]2O
maximum recommended daily dose (mmol/kg-bw/day) (TherapeuticCategory: antianginal): 0.0105

C[C@@H]1O[C@@H](O[C@@H]2C=C3CC[C@@H]4[C@H](CC[C@]5(C)[C@@H](c6ccc(=O)oc6)CC[C@]45O)[C@@]3(C)CC2)[C@H](O)[C@H](O)[C@H]1O
maximum recommended daily dose (mmol/kg-bw/day) (TherapeuticCategory: cardiotonic): 7.86e-05

CCCOC(=O)Cn1cc(I)c(=O)c(I)c1
maximum recommended daily dose (mmol/kg-bw/day) [8]: 0.224

CCOC(=O)CCCCCCCCC(C)c1ccccc1I (centres undefined)
maximum recommended daily dose (mmol/kg-bw/day) [8]: 0.3

CC(C)NCC(O)c1ccc(O)c(O)c1 (centres undefined)
maximum recommended daily dose (mmol/kg-bw/day) [4]: 0.000791

C[C@H]1CC[C@@H]2N(C1)C[C@@H]1[C@H]([C@@H](O)[C@H](O)[C@]3(O)[C@H]1C[C@@]14O[C@@]5(O)[C@@H]([C@@H](O)[C@@H](O)[C@@H]31)[C@]4(C)CC[C@@H]5O)[C@]2(C)O
maximum recommended daily dose (mmol/kg-bw/day) (TherapeuticCategory: none): 4.76e-05

CC(C)NCC(O)COc1cccc2ccccc12 (centres undefined)
maximum recommended daily dose (mmol/kg-bw/day) (TherapeuticCategory: antihypertensive, antianginal, antiarrhythmic): 0.0413

OC[C@@H](O)[C@@H](O)[C@H](O)[C@H](O)CO
maximum recommended daily dose (mmol/kg-bw/day) (TherapeuticCategory: diuretic, diagnostic aid): 5.48

C#C[C@]1(O)CC[C@H]2[C@@H]3CCC4=C(CCC(=O)C4)[C@H]3CC[C@@]21C
maximum recommended daily dose (mmol/kg-bw/day) (TherapeuticCategory: progestogen): 0.00224

C[C@]12C=CC(=O)C=C1CC[C@@H]1[C@@H]2CC[C@]2(C)OC(=O)CC[C@@H]12
maximum recommended daily dose (mmol/kg-bw/day) [2]: 0.0139

CN[C@@H]1[C@H](O[C@H]2[C@H](O[C@H]3[C@H](O)[C@@H](O)[C@H](N=C(N)N)[C@@H](O)[C@@H]3N=C(N)N)O[C@@H](C)[C@]2(O)C=O)O[C@@H](CO)[C@H](O)[C@H]1O
maximum recommended daily dose (mmol/kg-bw/day) [1]: 0.0344

NC(=O)NC(=O)Cc1ccccc1
maximum recommended daily dose (mmol/kg-bw/day) (TherapeuticCategory: anticonvulsant): 0.281

C[C@](N)(Cc1ccc(O)c(O)c1)C(=O)O
maximum recommended daily dose (mmol/kg-bw/day) [9]: 0.158

CN(CCO)CC(O)Cn1cnc2c1c(=O)n(C)c(=O)n2C (centres undefined) (tested in a mixture with another compound)
maximum recommended daily dose (mmol/kg-bw/day) (TherapeuticCategory: peripheral vasodilator): 0.0575

C[N+]1(C)CCCC(OC(=O)C(O)(c2ccccc2)c2ccccc2)C1 (centres undefined)
maximum recommended daily dose (mmol/kg-bw/day) [5]: 0.00792

CN(C)CCc1c[nH]c2ccc(Cn3cncn3)cc12
maximum recommended daily dose (mmol/kg-bw/day) (TherapeuticCategory: antimigraine): 0.00186

O=C(N[C@H](CO)[C@H](O)c1ccc([N+](=O)[O-])cc1)C(Cl)Cl
maximum recommended daily dose (mmol/kg-bw/day) (TherapeuticCategory: antibacterial, antirickettsial): 0.309

CCOC(=O)c1c(N)sc2c1CCN(Cc1ccccc1)C2
maximum recommended daily dose (mmol/kg-bw/day) (TherapeuticCategory: analgesic, antipyretic, anti inflammatory): 0.0158

CC(=O)OCC1=C(C(=O)O)N2C(=O)[C@@H](NC(=O)CC#N)[C@H]2SC1
maximum recommended daily dose (mmol/kg-bw/day) [1]: 0.295

C=CCC1(CC=C)C(=O)NC(=O)NC1=O
maximum recommended daily dose (mmol/kg-bw/day) [3]: 0.016

CCC(=O)O[C@@](Cc1ccccc1)(c1ccccc1)[C@@H](C)CN(C)C
maximum recommended daily dose (mmol/kg-bw/day) (TherapeuticCategory: antitussive): 0.00492

C[C@]12CC[C@H]3[C@@H](CCC4=CC(=O)CC[C@@H]43)[C@@H]1CC[C@@H]2OC(=O)CCc1ccccc1
maximum recommended daily dose (mmol/kg-bw/day) (TherapeuticCategory: anabolic steroid): 0.00819

CCC(C)C(CC)C(=O)NC(N)=O (centres undefined)
maximum recommended daily dose (mmol/kg-bw/day) (TherapeuticCategory: hypnotic): 0.0358

CCN(CCO)CCn1c(Cc2ccccc2)nc2c1c(=O)n(C)c(=O)n2C
maximum recommended daily dose (mmol/kg-bw/day) [4]: 0.0778

CCCC1C(=O)N2C(N(C)C)=Nc3ccc(C)cc3N2C1=O (centres undefined)
maximum recommended daily dose (mmol/kg-bw/day) (TherapeuticCategory: analgesic, anti inflammatory): 0.0892

CC[C@H]1CN2CCc3cc(OC)c(OC)cc3[C@@H]2C[C@@H]1C[C@H]1NCCc2cc(OC)c(OC)cc21
maximum recommended daily dose (mmol/kg-bw/day) [6]: 0.00208

O=NN(CCCl)C(=O)NCCCl
maximum recommended daily dose (mmol/kg-bw/day) [2]: 0.000389

CN1CCC(OC(c2ccccc2)c2ccccc2)CC1
maximum recommended daily dose (mmol/kg-bw/day) [7]: 0.00118

CCN(CC)S(=O)(=O)c1ccc(C(=O)O)cc1
maximum recommended daily dose (mmol/kg-bw/day) (TherapeuticCategory: uricosuric): 0.194
